Source: US6525001B1, “Substituted pyrimidine and pyridine herbicides” (Mid-American Commercialization Corporation, priority 1997, dated 2003)

Key:
Format in all cases: in vivo
[1] = test system: cotton (Gossypium hirsutum); test: Test C; parameters: key: 0 was no effect; 100 was complete control; details: PREEMERGENCE
[2] = test system: guineagrass (Panicum maximum); test: Test E pre-/postemergence/post directed; parameters: key: 0 is no effect; 100 is complete control
Outline: (§1)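 Three application modes in greenhouse pots: preemergence soil spray, postemergence foliar spray at two to four leaves, and post-directed spray to soil and plant base. Ratings of 0–100 injury, assigned visually against untreated controls 13 to 21 days later.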

[3] = test system: common groundsel (Senecio vulgaris); test: Test E pre-/postemergence/post directed; parameters: key: 0 is no effect; 100 is complete control; details: PREEMERGENCE
Outline: as §1

[4] = test system: common purslane (Portulaca oleracea); test: Test E pre-/postemergence/post directed; parameters: key: 0 is no effect; 100 is complete control
Outline: as §1

[5] = test system: common ragweed (Ambrosia elatior); test: Test E pre-/postemergence/post directed; parameters: key: 0 is no effect; 100 is complete control; details: PREEMERGENCE
Outline: as §1

[6] = test system: tall mallow (Malva sylvestris); test: Test E pre-/postemergence/post directed; parameters: key: 0 is no effect; 100 is complete control; details: PREEMERGENCE
Outline: as §1

[7] = test system: bermudagrass (Cynodon dactylon); test: Test E pre-/postemergence/post directed; parameters: key: 0 is no effect; 100 is complete control; details: PREEMERGENCE
Outline: as §1

[8] = test system: dallisgrass (Paspalum dilatatum); test: Test E pre-/postemergence/post directed; parameters: key: 0 is no effect; 100 is complete control
Outline: as §1

[9] = test system: sourgrass (Trichachne insularis); test: Test E pre-/postemergence/post directed; parameters: key: 0 is no effect; 100 is complete control
Outline: as §1

[10] = test system: large crabgrass (Digitaria sanguinalis); test: Test E pre-/postemergence/post directed; parameters: key: 0 is no effect; 100 is complete control; details: PREEMERGENCE
Outline: as §1

[11] = test system: barnyardgrass (Echinochloa crus-galli); test: Test C; parameters: key: 0 was no effect; 100 was complete control; details: PREEMERGENCE
[12] = test system: Spanishneedles (Bidens bipinnata); test: Test E pre-/postemergence/post directed
Outline: as §1

[13] = test system: itchgrass (Rottboellia exaltata); test: Test E pre-/postemergence/post directed
Outline: as §1

[14] = test system: johnson grass (Sorghum halepense); test: Test E pre-/postemergence/post directed
Outline: as §1

[15] = test system: common ragweed (Ambrosia elatior); test: Test E pre-/postemergence/post directed
Outline: as §1

[16] = test system: bermudagrass (Cynodon dactylon); test: Test E pre-/postemergence/post directed; details: POSTEMERGENCE, Rate 250 g/ha
Outline: as §1

[17] = test system: pitted morningglory (Ipomoea lacunosa); test: Test E pre-/postemergence/post directed
Outline: as §1

[18] = test system: large crabgrass (Digitaria sanguinalis); test: Test E pre-/postemergence/post directed; details: POSTEMERGENCE, Rate 250 g/ha
Outline: as §1

[19] = test system: sandbur (Cenchrus echinatus); test: Test E pre-/postemergence/post directed
Outline: as §1

[20] = test system: ladysthumb smartweed (Polygonum persicaria); test: Test C; details: PREEMERGENCE

Cc1cnc(-c2ccc(C(F)(F)F)cc2)nc1Cc1cccc(C(F)(F)F)c1 [Example 1, 5-methyl-2-[4-(trifluoromethyl)phenyl]-4-[[3-(trifluoromethyl)phenyl]methyl]pyrimidine]
50: Plant response rating, Itchgrass ([13]; PREEMERGENCE, Rate 125 g/ha)
65: Plant response rating, Sandbur ([19]; PREEMERGENCE, Rate 64 g/ha)
95: Plant response rating, Itchgrass ([13]; PREEMERGENCE, Rate 250 g/ha) | Plant response rating, Sandbur ([19]; PREEMERGENCE, Rate 125 g/ha) | Plant response rating, Ladysthumb ([20]; Rate 140 g/ha)
80: Plant response rating, Spanishneedles ([12]; PREEMERGENCE, Rate 64 g/ha) | Plant response rating, P. morninglory ([17]; POSTEMERGENCE, Rate 250 g/ha) | Plant response rating, P. morninglory ([17]; PREEMERGENCE, Rate 64 g/ha)
25: Plant response rating, Ladysthumb ([20]; Rate 35 g/ha)
98: Plant response rating, Com. purslane ([4]; PREEMERGENCE, Rate 32 g/ha) | Plant response rating, Dallisgrass ([8]; PREEMERGENCE, Rate 32 g/ha)
100: Plant response rating, Cotton ([1]; Rate 140 g/ha) | Plant response rating, Guineagrass ([2]; PREEMERGENCE, Rate 64 g/ha) | Plant response rating, Guineagrass ([2]; PREEMERGENCE, Rate 125 g/ha) | Plant response rating, Guineagrass ([2]; PREEMERGENCE, Rate 250 g/ha) | Plant response rating, Com. groundsel ([3]; Rate 64 g/ha) | Plant response rating, Com. groundsel ([3]; Rate 125 g/ha) | Plant response rating, Com. groundsel ([3]; Rate 250 g/ha) | Plant response rating, Com. purslane ([4]; PREEMERGENCE, Rate 64 g/ha) | Plant response rating, Com. purslane ([4]; PREEMERGENCE, Rate 125 g/ha) | Plant response rating, Com. purslane ([4]; PREEMERGENCE, Rate 250 g/ha) | Plant response rating, Com. ragweed ([5]; Rate 64 g/ha) | Plant response rating, Com. ragweed ([5]; Rate 125 g/ha) | Plant response rating, Com. ragweed ([5]; Rate 250 g/ha) | Plant response rating, Tall Mallow ([6]; Rate 32 g/ha) | Plant response rating, Tall Mallow ([6]; Rate 64 g/ha) | Plant response rating, Tall Mallow ([6]; Rate 125 g/ha) | Plant response rating, Tall Mallow ([6]; Rate 250 g/ha) | Plant response rating, Bermudagrass ([7]; Rate 32 g/ha) | Plant response rating, Bermudagrass ([7]; Rate 64 g/ha) | Plant response rating, Bermudagrass ([7]; Rate 125 g/ha) | Plant response rating, Bermudagrass ([7]; Rate 250 g/ha) | Plant response rating, Dallisgrass ([8]; PREEMERGENCE, Rate 64 g/ha) | Plant response rating, Dallisgrass ([8]; PREEMERGENCE, Rate 125 g/ha) | Plant response rating, Dallisgrass ([8]; PREEMERGENCE, Rate 250 g/ha) | Plant response rating, Sourgrass ([9]; PREEMERGENCE, Rate 32 g/ha) | Plant response rating, Sourgrass ([9]; PREEMERGENCE, Rate 64 g/ha) | Plant response rating, Sourgrass ([9]; PREEMERGENCE, Rate 125 g/ha) | Plant response rating, Sourgrass ([9]; PREEMERGENCE, Rate 250 g/ha) | Plant response rating, Large crabgrass ([10]; Rate 32 g/ha) | Plant response rating, Large crabgrass ([10]; Rate 64 g/ha) | Plant response rating, Large crabgrass ([10]; Rate 125 g/ha) | Plant response rating, Large crabgrass ([10]; Rate 250 g/ha) | Plant response rating, Barnyardgrass ([11]; Rate 140 g/ha)
75: Plant response rating, Barnyardgrass ([11]; Rate 70 g/ha)
85: Plant response rating, Itchgrass ([13]; POSTEMERGENCE, Rate 250 g/ha) | Plant response rating, Large crabgrass [18]
60: Plant response rating, Cotton ([1]; Rate 70 g/ha)
5: Plant response rating, Johnsongrass ([14]; PREEMERGENCE, Rate 32 g/ha)
40: Plant response rating, Com. purslane ([4]; POSTEMERGENCE, Rate 250 g/ha) | Plant response rating, Spanishneedles ([12]; PREEMERGENCE, Rate 32 g/ha) | Plant response rating, Johnsongrass ([14]; PREEMERGENCE, Rate 64 g/ha)
20: Plant response rating, Barnyardgrass ([11]; Rate 35 g/ha) | Plant response rating, Itchgrass ([13]; PREEMERGENCE, Rate 32 g/ha) | Plant response rating, Itchgrass ([13]; PREEMERGENCE, Rate 64 g/ha) | Plant response rating, Sandbur ([19]; PREEMERGENCE, Rate 32 g/ha)
30: Plant response rating, Cotton ([1]; Rate 35 g/ha) | Plant response rating, Sourgrass ([9]; POSTEMERGENCE, Rate 250 g/ha) | Plant response rating, Bermudagrass [16]
90: Plant response rating, Guineagrass ([2]; PREEMERGENCE, Rate 32 g/ha) | Plant response rating, Dallisgrass ([8]; POSTEMERGENCE, Rate 250 g/ha) | Plant response rating, Spanishneedles ([12]; PREEMERGENCE, Rate 125 g/ha) | Plant response rating, Johnsongrass ([14]; POSTEMERGENCE, Rate 250 g/ha) | Plant response rating, Johnsongrass ([14]; PREEMERGENCE, Rate 125 g/ha) | Plant response rating, Com. ragweed ([15]; PREEMERGENCE, Rate 32 g/ha) | Plant response rating, Ladysthumb ([20]; Rate 70 g/ha)
10: Plant response rating, Spanishneedles ([12]; POSTEMERGENCE, Rate 250 g/ha) | Plant response rating, Sandbur ([19]; POSTEMERGENCE, Rate 250 g/ha)
70: Plant response rating, Guineagrass ([2]; POSTEMERGENCE, Rate 250 g/ha) | Plant response rating, Com. ragweed ([15]; POSTEMERGENCE, Rate 250 g/ha) | Plant response rating, P. morninglory ([17]; PREEMERGENCE, Rate 32 g/ha)
